# Assay results from patent US20240408004A1, “COMPOSITIONS, DEVICES, AND METHODS FOR THE TREATMENT OF OVERDOSE AND REWARD-BASED DISORDERS” (priority 2018, published 2024).
# Assays:
# [1] = system: rabbit eye; conditions: concentrations of 25%; cited from earlier work
# [2] = Safety assessments of Example 4 study (adverse events, nasal irritation, vital signs, ECG); type: in vivo, human
# Procedure: Sudy Goals. […] Secondary endpoints included adverse events (AEs), vital signs (heart rate, sitting blood pressure, and respiration rate), electrocardiogram (ECG), clinical laboratory changes and nasal irritation using the nasal irritation scale.
# On dosing days, the order of assessments were ECG, vital signs, then PK blood collection when scheduled at the same nominal times. The target time of the PK blood collection was considered the most critical and if the collection was more than ±1 minute from the scheduled time for the first 60 minutes of collections or more than ±5 minutes for the scheduled time points thereafter, this was considered a protocol deviation. ECG and vital signs were collected within the 10 minute period before the nominal time of blood collections. At screening, admission, and discharge, ECG, and vital signs were checked once per day. […] Clinical laboratory measurements were repeated after the last PK blood draw prior to clinic discharge. AEs were assessed by spontaneous reports by subjects, by examination of the nasal mucosa, by measuring vital signs, ECG, and clinical laboratory parameters.
# Safety Assessments. […] ECG and vital signs was performed within the 10 minute period before the nominal time for post-dose blood collections. AEs were recorded from the start of study drug administration until clinic discharge.
# [3] = Intranasal naltrexone formulation experiments (solubility, crystallization, discoloration, osmolality); type: physicochemical
# Procedure: A series of experiments were performed to identify formulations of naltrexone which would make pharmaceutically appropriate intranasal products as disclosed herein.
# A range of formulations were tested with the following observations. […] Several preparations were made at 30 mg/mL thereafter, which additionally contained fixed amounts of (dodecyl maltoside 0.25%) and NaCl (about 0.74%), and varying amounts of preservative (benzalkonium chloride, 0-0.02%) and stabilizing agent (EDTA, 0-0.3%). Crystallization behavior and discoloration were visually monitored. All of these formulations developed crystals when stored under refrigerated conditions. […] The 0.3% EDTA formulation appeared to resist yellowing for the longest period of time. Thereafter, a range of co-solvents were assessed for their potential to reduce crystallization of drug out of solution. Polyethylene glycol (PEG), propylene glycol, and benzyl alcohol were tested.
# [4] = cited from earlier work
# [5] = intranasal formulation with […] dodecyl maltoside
smiles,measurement,setting,value
"CCCCCCCCCCCCO[C@@H]1O[C@H](CO)[C@@H](O[C@H]2O[C@H](CO)[C@@H](O)[C@H](O)[C@H]2O)[C@H](O)[C@H]1O [Intravail®, 1-O-n-dodecyl-β-D-maltopyranoside]",irritation in the rabbit eye model,[1],non-irritating
"O=C1CC[C@@]2(O)[C@H]3Cc4ccc(O)c5c4[C@@]2(CCN3CC2CC2)[C@H]1O5 [naltrexone, 17-(cyclopropylmethyl)-4,5α-epoxy-3,14-dihydroxymorphinan-6-one]",subjects with dizziness,"[2]; 5 subjects, regardless of severity or attribution",36%
same,subjects with AEs of the Nervous System Disorders SOC,[2]; 7 subjects,50%
same,subjects who experienced at least one AE,"[2]; 10 of 14 subjects, any dosing period, any relationship to drug",71%
same,discontinuation from the study due to AEs,"[2]; hypertension, syncope, out-of-range pre-dose vital signs",Three subjects were discontinued
same,severe AEs,[2]; in vivo,No severe AEs were observed
same,appearance of 50 mg/mL preparation,"[3]; room temperature, indicating incomplete dissolution",cloudy
same,solubility,"[3]; thermodynamic from solid, ambient temperature, read-out: solubility limit in solution",~40 mg/mL
CNS(=O)(=O)Cc1ccc2[nH]cc(CCN(C)C)c2c1 [sumatriptan],increase of total exposure (AUC),[4]; intranasal formulation with […] dodecyl maltoside vs Imitrex nasal spray,32%
same,Tmax,[4]; [5],8 to 10 min
same,increase of maximum plasma concentration in comparison to Imitrex nasal spray,[4]; [5],almost four-fold
